Experimental findings from PubChem BioAssay AID651963 (The Scripps Research Institute Molecular Screening Center, 2012) are described below.

The assay deals with C. elegans Q35::YFP muscle, polyQ foci count microscopy. The assay is described as follows: PubChem AID 651963. Particulars: at 10 µM; hits give low values.

Turning to `COc1ccc(/C=C/C=C2C(=O)NC(=O)NC2=O)cc1`, the relative foci is 33.8%.
